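Tested at 5 concentrations; 48 h exposure; 96-well plates; endpoints linearly interpolated, else capped at highest concentration. GI50: concentration for 50% inhibition of growth. At the TGI there is no net growth.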
Legend:
Experiment in all cases: DTP human tumour cell line panel, 48 h
HCC-2998 colon = test system: HCC-2998 colon
HCT-116 colon = test system: HCT-116 colon
M14 melanoma = test system: M14 melanoma
PC-3 prostate = test system: PC-3 prostate
RPMI-8226 leukemia = test system: RPMI-8226 leukemia
SF-539 CNS = test system: SF-539 CNS
UACC-257 melanoma = test system: UACC-257 melanoma
DMS 114 small cell lung = test system: DMS 114 small cell lung
M19-MEL melanoma = test system: M19-MEL melanoma
DMS 273 small cell lung = test system: DMS 273 small cell lung

SMILES	GI50 (HCC-2998 colon)	TGI (HCC-2998 colon)	GI50 (HCT-116 colon)	TGI (HCT-116 colon)	GI50 (M14 melanoma)	TGI (M14 melanoma)	GI50 (PC-3 prostate)	TGI (PC-3 prostate)	GI50 (RPMI-8226 leukemia)	TGI (RPMI-8226 leukemia)	GI50 (SF-539 CNS)	TGI (SF-539 CNS)	GI50 (UACC-257 melanoma)	TGI (UACC-257 melanoma)	TGI (DMS 114 small cell lung)	TGI (M19-MEL melanoma)	TGI (DMS 273 small cell lung)
O=C1COCCN1c1ccc(NCc2cn(Cc3ccc(F)cc3)c3ccccc23)cc1	11.1 µM	51.7 µM	0.0618 µM	14 µM	5.46 µM	40.8 µM	8.68 µM	45.2 µM	0.662 µM	8.8 µM	7.36 µM	33.1 µM	0.204 µM	0.844 µM			
C/C(=N\O)c1ccc(Nc2cc(-c3ccccc3)nc3c(O)cccc23)cc1	10.6 µM	23.4 µM	13.2 µM	25.9 µM	16.2 µM	31.3 µM	17.1 µM	41.9 µM	4.5 µM	30.8 µM	15.3 µM	29.6 µM	11.7 µM	24.4 µM			
CC/C(=C(/c1ccc(Cl)cc1)c1ccc(OCCCN(C)C)cc1)c1ccc(OC)cc1	8.74 µM	17.4 µM	0.86 µM	1.57 µM	0.966 µM	1.92 µM	1.12 µM	2.71 µM	1.17 µM	2.54 µM	4.08 µM	11.6 µM	7.93 µM	15 µM			
O=C(Nc1ccc(-n2cc(-c3ccncc3)c(-c3ccc(Cl)c(O)c3)n2)cc1)c1ccc(Cl)c(C(F)(F)F)c1	1.69 µM	6.96 µM	0.918 µM	2.45 µM	1.16 µM	3.29 µM	1.15 µM	30.8 µM	0.426 µM	2.68 µM	0.65 µM	2.99 µM	3.27 µM	39.9 µM			
Nc1c(C(=O)Nc2cccc3ccccc23)sc2nc3c(cc12)CCCCCC3	2.64 µM	> 50 µM	1.72 µM	> 50 µM	1.05 µM	> 50 µM	1.79 µM	> 50 µM	2.03 µM	> 50 µM	1.24 µM	> 50 µM	> 50 µM	> 50 µM			
COC(=O)C1=CCS(=O)(=O)C1		> 100 µM		> 100 µM		> 100 µM				> 100 µM		> 100 µM		> 100 µM	> 100 µM	> 100 µM	
CCC1(O)CC(c2ccccc2)N(C)C(c2ccccc2)C1 (stereo not given)		> 100 µM		> 100 µM		> 100 µM						> 100 µM		> 100 µM	> 100 µM	> 100 µM	> 100 µM
Cc1cc(=O)[nH]c2c1C(=O)C(=O)C=C2	> 100 µM	> 100 µM	18.2 µM	35.4 µM	23.8 µM	60.9 µM	71 µM	> 100 µM	39 µM	> 100 µM	28.2 µM	47.7 µM	> 100 µM	> 100 µM			
Nc1c(S(=O)(=O)O)cc2c(c1Cl)C(=O)c1ccccc1C2=O	> 100 µM	> 100 µM	> 100 µM	> 100 µM	> 100 µM	> 100 µM	> 100 µM	> 100 µM	> 100 µM	> 100 µM	> 100 µM	> 100 µM	> 100 µM	> 100 µM			
O=C1/C=C/[C@@H](O)[C@@H]2C[C@@H](O)C[C@H]2/C=C/CCCCO1	0.32 µM	1.76 µM	0.447 µM	1.53 µM	0.336 µM	> 100 µM	0.417 µM	> 100 µM	0.248 µM	0.889 µM	0.383 µM	> 100 µM	0.545 µM	> 100 µM			
NCCCSCC(=O)O		> 100 µM		> 100 µM						> 100 µM		> 100 µM		> 100 µM	> 100 µM	> 100 µM	> 100 µM
COc1cc(Cl)c(C)cc1NC(=O)c1cc2ccccc2cc1O	3.31 µM	12.8 µM	1.95 µM	7.1 µM	2.85 µM	9.53 µM	2.33 µM	10.7 µM	1.46 µM	6.17 µM	2.81 µM	10.4 µM	1.94 µM	5.93 µM			
Cc1nc(N(C)C)nc(-c2cccc(-c3ccn(CCN(C)C)n3)c2)c1C	> 20 µM	> 20 µM	> 20 µM	> 20 µM	> 20 µM	> 20 µM	> 20 µM	> 20 µM	> 20 µM	> 20 µM	> 20 µM	> 20 µM	> 20 µM	> 20 µM			
COc1ccc2c(C(=O)NCCCCCC(=O)O)cc3cc4c(cc3c2c1)OCO4	> 100 µM	> 100 µM	> 100 µM	> 100 µM	> 100 µM	> 100 µM	> 100 µM	> 100 µM	> 100 µM	> 100 µM	> 100 µM	> 100 µM	> 100 µM	> 100 µM			
Cc1cnc2n(c1=O)Cc1ccccc1CO2	16 µM	31.4 µM	17.2 µM	43.8 µM	14.5 µM	29.1 µM	18.7 µM	43.7 µM	13.1 µM	41 µM	24 µM	60 µM	23 µM	66 µM			
Cn1cc(C2=C(c3cn(CCCN/C(N)=N\[N+](=O)[O-])c4ccccc34)C(=O)NC2=O)c2ccccc21	6.72 µM	20.4 µM	1.82 µM	> 25 µM	4.8 µM	12.3 µM	3.36 µM	17.2 µM	5.64 µM	14.8 µM	0.968 µM	5.11 µM	7.12 µM	21.8 µM			
C=CCOc1ccc2c(c1)CC[C@@H]1[C@@H]2CC[C@]2(C)C(=O)/C(=N/O)C[C@@H]12	1.09 µM	3.06 µM	2.04 µM	6.82 µM	5.95 µM	27.8 µM	3.6 µM	18.8 µM	2.74 µM	9.35 µM	15.8 µM	> 50.1 µM	11.8 µM	59 µM			

From PubChem BioAssay (NCI)
